Reference: US9493468B2, “Antifungal 5,6-dihydro-4H-pyrrolo[1,2-a][1,4]benzo-diazepines and 6H-pyrrolo[1,2-a][1,4]benzodiazepines substituted with heterocyclic derivatives” (Janssen Pharmaceutica NV, priority 2011, dated 2016)

Assays:
Format in all cases: cell-based
Scedosporium apiospermum = test: Antifungal activity in vitro, resazurin growth inhibition: Scedosporium apiospermum (IHEM3817)
Procedure, shortened: (§1)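 Compound dilutions, with 64 μM as the highest in-test level, are spotted onto plates, then an inoculum of 10^3 cfu in RPMI-1640 plus 2% glucose (MOPS, pH 7.0±0.1) is added. Plates are incubated at species-dependent time and temperature, up to a week or more at 27° C. for dermatophytes.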

Rhizopus oryzae = test: Antifungal activity in vitro, resazurin growth inhibition: Rhizopus oryzae (IHEM5223)
Procedure, shortened: as §1

Cryptococcus neoformans = test: Antifungal activity in vitro, resazurin growth inhibition: Cryptococcus neoformans (B66663)
Procedure, shortened: as §1

[1] = test system: Trichophyton mentagrophytes; test: Antifungal activity in vitro, resazurin growth inhibition: Trichophyton mentagrophytes (B70554)
Procedure, shortened: (§2)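 Broth microdilution: RPMI-1640/L-Gln/2% glucose, MOPS pH 7.0±0.1; 10^3 cfu/well; top concentration 64 μM, 2- or 4-fold steps. Dermatophytes at 27° C., one week or more. Resazurin 0.005% (w/v) added, fluorescence 550/590 nm.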

Aspergillus fumigatus = test: Antifungal activity in vitro, resazurin growth inhibition: Aspergillus fumigatus (B42928)
Procedure, shortened: as §1

Scedosporium prolificans = test: Antifungal activity in vitro, resazurin growth inhibition: Scedosporium prolificans (IHEM21157)
Procedure, shortened: as §1

Rhizomucor miehei = test: Antifungal activity in vitro, resazurin growth inhibition: Rhizomucor miehei (IHEM13391)
Procedure, shortened: as §1

Microsporum canis = test: Antifungal activity in vitro, resazurin growth inhibition: Microsporum canis (B68128)
Procedure, shortened: as §2

Trichophyton rubrum = test: Antifungal activity in vitro, resazurin growth inhibition: Trichophyton rubrum (B68183)
Procedure, shortened: as §2

Candida parapsilosis = test: Antifungal activity in vitro, resazurin growth inhibition: Candida parapsilosis (B66126)
Procedure, shortened: as §1

Sporothrix schenkii = test: Antifungal activity in vitro, resazurin growth inhibition: Sporothrix schenkii (B62482)
Procedure, shortened: as §1

Inf. H: Scedosporium apiospermum IHEM3817, pIC50 (Scedosporium apiospermum)	Inf. J: Rhizopus oryzae IHEM5223, pIC50 (Rhizopus oryzae)	Inf. F: Cryptococcus neoformans B66663, pIC50 (Cryptococcus neoformans)	Inf. G: Trichophyton mentagrophytes B70554, pIC50 [1]	Inf. E: Aspergillus fumigatus B42928, pIC50 (Aspergillus fumigatus)	Inf. I: Scedosporium prolificans IHEM21157, pIC50 (Scedosporium prolificans)	Inf. K: Rhizomucor miehei IHEM13391, pIC50 (Rhizomucor miehei)	Inf. B: Microsporum canis B68128, pIC50 (Microsporum canis)	Inf. C: Trichophyton rubrum B68183, pIC50 (Trichophyton rubrum)	Inf. D: Candida parapsilosis B66126, pIC50 (Candida parapsilosis)	Inf. A: Sporothrix schenkii B62482, pIC50 (Sporothrix schenkii)	SMILES
5.63	<4.19	6.47	6.18	5.74	6.51	<4.19	6.23	6.63	<4.19	5.55	Fc1cccc2cc(C3=NCc4c(Cl)cccc4-n4cccc43)sc12 [Compound 170]
5.45	<4.19	5.18	6.34	6.29	6.64	<4.19	6.33	6.87	<4.19	<4.19	Clc1cccc2c1CN=C(c1cc3cccc(Cl)c3o1)c1cccn1-2 [Compound 126]
5.15	<4.19	5.85	6.81	6.29	5.45	4.72	6.90	7.35	5.80	5.59	Clc1cccc2c1CN=C(c1ccc3ccsc3c1)c1cccn1-2 [Compound 172]
5.97	5.77	<4.19	6.86	5.52	6.15	5.58	6.96	6.82	<4.19	6.11	Clc1ccc2oc(C3=NCc4c(Cl)cccc4-n4cccc43)cc2c1 [Compound 121]
5.68	5.50	5.28	6.40	6.00	6.38	4.52	6.36	6.99	5.12	5.17	CC(C)n1ccc(C2=NCc3c(Cl)cccc3-n3cccc32)cc1=O [Compound 70]

Continued, compound first:

SMILES	Inf. H: Scedosporium apiospermum IHEM3817, pIC50 (Scedosporium apiospermum)	Inf. J: Rhizopus oryzae IHEM5223, pIC50 (Rhizopus oryzae)	Inf. F: Cryptococcus neoformans B66663, pIC50 (Cryptococcus neoformans)	Inf. G: Trichophyton mentagrophytes B70554, pIC50 [1]	Inf. E: Aspergillus fumigatus B42928, pIC50 (Aspergillus fumigatus)	Inf. I: Scedosporium prolificans IHEM21157, pIC50 (Scedosporium prolificans)	Inf. K: Rhizomucor miehei IHEM13391, pIC50 (Rhizomucor miehei)	Inf. B: Microsporum canis B68128, pIC50 (Microsporum canis)	Inf. C: Trichophyton rubrum B68183, pIC50 (Trichophyton rubrum)	Inf. D: Candida parapsilosis B66126, pIC50 (Candida parapsilosis)	Inf. A: Sporothrix schenkii B62482, pIC50 (Sporothrix schenkii)
Clc1cc(Cl)c2c(c1)-n1cccc1C(c1cc3ccccc3s1)=NC2 [Compound 168]	<4.19	<4.19	6.41	6.40	6.73	6.48	<4.19	4.96	6.18	<4.19	6.22
Cc1cccc2c1-n1cccc1C(c1cc3ccccc3o1)=NC2 [Compound 117]	4.80	<4.19	5.77	6.43	5.98	5.97	4.80	6.52	7.07	<4.19	5.74
Cc1cccc2c1CN=C(c1cc3ccccc3o1)c1cccn1-2 [Compound 116]	6.22	<4.19	5.65	6.83	6.26	6.46	4.81	7.39	7.52	4.70	5.84
CC(=O)c1ccc(C2=NCc3c(F)cc(F)cc3-n3cccc32)cn1 [Compound 94]	<4.19	<4.19	4.58	5.92	5.13	<4.19	<4.19	5.71	6.19	4.59	<4.19
COc1ccc2oc(C3=NCc4c(Cl)cccc4-n4cccc43)cc2c1 [Compound 146]	<4.19	<4.19	<4.19	5.44	<4.19	4.80	<4.19	5.76	6.19	<4.19	<4.19
CC(F)(F)c1ccc(C2=NCc3c(Cl)cc(Cl)cc3-n3cccc32)cn1 [Compound 84]	5.31	<4.19	5.88	5.88	6.24	<4.19	<4.19	6.24	6.26	5.44	5.65
Clc1cccc2c1-n1cccc1C(c1cc3ccccc3s1)=NC2 [Compound 167]	5.72	<4.19	5.86	5.97	5.38	6.31	5.10	6.01	6.79	4.90	5.70
Cn1nnc2ccc(C3=NCc4c(Cl)cc(Cl)cc4-n4cccc43)cc21 [Compound 111]	5.77	<4.19	5.74	5.31	5.76	6.77	4.53	5.69	6.09	<4.19	4.41
